Test results as given in US20220323406A1, “METHODS AND COMPOSITIONS FOR DIFFERENTIATING STEM CELLS” (Massachusetts Institute of Technology, priority 2019, published 2022).
Counter-ions that a name gives are not always drawn.

What was measured:
[1] = system: ENR+CD organoids (ISC to Paneth cell differentiation); assay: Primary screen: CCh-stimulated lysozyme secretion LYZ.S, 2.5-D 384-well ENR+CD organoid differentiation; type: cell-based, mouse; conditions: primary screen
Text: (§1) High-throughput screening.

ENR+CD organoids = assay: Primary screen: ATP (CellTiter-Glo 3D, CTG) cell number/viability, 2.5-D 384-well ENR+CD organoids; conditions: primary screen; for Z.CTG: standard z score;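 for all read-outs here: compounds given at plating and again on day 3 over a 6-day differentiation from ENR+CV stem-cell-enriched precursors, ATP measured on day 6, plate median as control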
[2] = system: ENR+CD organoids (ISC to Paneth cell differentiation); assay: Primary screen: basal (non-stimulated) lysozyme secretion LYZ.NS, 2.5-D 384-well ENR+CD organoid differentiation; type: cell-based, mouse
Text: as §1

[3] = dose 0.08 uM, FC vs plate median
[4] = dose 0.40 uM, FC vs plate median
[5] = dose 2.00 uM, FC vs plate median
[6] = dose 10.00 uM, FC vs plate median
[7] = primary screen, dose 0.08 uM, standard z score
[8] = primary screen, dose 0.40 uM, standard z score
[9] = primary screen, dose 2.00 uM, standard z score
[10] = primary screen, dose 10.00 uM, standard z score
[11] = dose 0.08 uM, FC relative to plate median
[12] = dose 0.40 uM, FC relative to plate median
[13] = dose 2.00 uM, FC relative to plate median
[14] = dose 10.00 uM, FC relative to plate median

| SMILES | Dose.FC.LYZ.S ([1]; dose 0.08 uM) | Dose.FC.LYZ.S ([1]; dose 0.40 uM) | Dose.FC.LYZ.S ([1]; dose 2.00 uM) | Dose.FC.LYZ.S ([1]; dose 10.00 uM) | Dose.FC.CTG (ENR+CD organoids; dose 0.08 uM) | Dose.FC.CTG (ENR+CD organoids; dose 0.40 uM) | Dose.FC.CTG (ENR+CD organoids; dose 2.00 uM) | Dose.FC.CTG (ENR+CD organoids; dose 10.00 uM) | Dose.FC.LYZ.NS ([2]; primary screen, dose 0.08 uM) | Z.LYZ.NS (standard z score) ([2]; primary screen, dose 0.08 uM) | Dose.FC.LYZ.NS ([2]; primary screen, dose 0.40 uM) | Z.LYZ.NS (standard z score) ([2]; primary screen, dose 0.40 uM) | Dose.FC.LYZ.NS ([2]; primary screen, dose 2.00 uM) | Z.LYZ.NS (standard z score) ([2]; primary screen, dose 2.00 uM) | Dose.FC.LYZ.NS ([2]; primary screen, dose 10.00 uM) | Z.LYZ.NS (standard z score) ([2]; primary screen, dose 10.00 uM) | also measured |
| --- | --- | --- | --- | --- | --- | --- | --- | --- | --- | --- | --- | --- | --- | --- | --- | --- | --- |
| CCN(CC)C(=O)c1ccc(C2=CC3(CCNCC3)Oc3cccc(O)c32)cc1 [ADL5859 HCl] | 0.079 log2 fold change | 0.104 log2 fold change | 0.070 log2 fold change | −0.040 log2 fold change | 0.270 log2 fold change | 0.163 log2 fold change | 0.291 log2 fold change | 0.194 log2 fold change | 0.053 log2 fold change | 0.458 | 0.019 log2 fold change | 0.163 | 0.066 log2 fold change | 0.571 | −0.056 log2 fold change | −0.488 |  |
| C[C@]12CC[C@@H]3c4ccc(O)cc4C[C@@H](CCCCCCCCC[S+]([O-])CCCC(F)(F)C(F)(F)F)[C@H]3[C@@H]1CC[C@@H]2O (stereo partly drawn) [Fulvestrant] | 0.051 log2 fold change | −0.049 log2 fold change | −0.024 log2 fold change | −0.150 log2 fold change | 0.119 log2 fold change | −0.063 log2 fold change | 0.142 log2 fold change | −0.204 log2 fold change | 0.057 log2 fold change |  | −0.050 log2 fold change |  | 0.000 log2 fold change |  | −0.043 log2 fold change |  | Z.LYZ.NS ([2]; primary screen, standard z score, dose 0.08 uM): 0.500; Z.LYZ.NS ([2]; primary screen, standard z score, dose 0.40 uM): −0.432; Z.LYZ.NS ([2]; primary screen, standard z score, dose 2.00 uM): 0.003; Z.LYZ.NS ([2]; primary screen, standard z score, dose 10.00 uM): −0.376 |
| CC(C)c1onc(-c2c(Cl)cccc2Cl)c1COc1ccc(/C=C/c2cccc(C(=O)O)c2)c(Cl)c1 [GW4064] |  |  |  |  |  |  |  |  |  | 1.476 |  | −0.194 |  | 0.196 |  | −0.516 | Dose.FC.LYZ.S (log2 fold change) ([1]; dose 0.08 uM): 0.028; Dose.FC.LYZ.S (log2 fold change) ([1]; dose 0.40 uM): 0.097; Dose.FC.LYZ.S (log2 fold change) ([1]; dose 2.00 uM): 0.000; Dose.FC.LYZ.S (log2 fold change) ([1]; dose 10.00 uM): −0.071; Dose.FC.CTG (log2 fold change) (ENR+CD organoids; dose 0.08 uM): −0.134; Z.CTG (standard z score) (ENR+CD organoids; dose 0.08 uM): −0.320; Dose.FC.CTG (log2 fold change) (ENR+CD organoids; dose 0.40 uM): 0.140; Z.CTG (standard z score) (ENR+CD organoids; dose 0.40 uM): 0.334; Dose.FC.CTG (log2 fold change) (ENR+CD organoids; dose 2.00 uM): −0.145; Z.CTG (standard z score) (ENR+CD organoids; dose 2.00 uM): −0.346; Dose.FC.CTG (log2 fold change) (ENR+CD organoids; dose 10.00 uM): −0.157; Z.CTG (standard z score) (ENR+CD organoids; dose 10.00 uM): −0.375; Dose.FC.LYZ.NS (log2 fold change) ([2]; primary screen, dose 0.08 uM): 0.170; Dose.FC.LYZ.NS (log2 fold change) ([2]; primary screen, dose 0.40 uM): −0.022; Dose.FC.LYZ.NS (log2 fold change) ([2]; primary screen, dose 2.00 uM): 0.022; Dose.FC.LYZ.NS (log2 fold change) ([2]; primary screen, dose 10.00 uM): −0.059 |
| COc1cc2c(Nc3ccc(NC(=O)c4ccccc4)cc3)ncnc2cc1OCCCN1CCOCC1 [ZM 447439] | 0.171 log2 fold change | 0.108 log2 fold change | 0.074 log2 fold change | −0.132 log2 fold change | 0.512 log2 fold change | 0.304 log2 fold change | 0.231 log2 fold change | −0.240 log2 fold change | 0.103 log2 fold change | 0.896 | 0.107 log2 fold change | 0.932 | 0.052 log2 fold change | 0.456 | −0.080 log2 fold change | −0.695 | Z.CTG (standard z score) (ENR+CD organoids; dose 0.08 uM): 1.222; Z.CTG (standard z score) (ENR+CD organoids; dose 0.40 uM): 0.725; Z.CTG (standard z score) (ENR+CD organoids; dose 2.00 uM): 0.552; Z.CTG (standard z score) (ENR+CD organoids; dose 10.00 uM): −0.574 |
| Cc1c(Cl)cccc1Nc1ccccc1C(=O)O [Tolfenamic Acid] | 0.118 log2 fold change | 0.052 log2 fold change | −0.023 log2 fold change | −0.064 log2 fold change | 0.196 log2 fold change | −0.003 log2 fold change | −0.159 log2 fold change | −0.115 log2 fold change | 0.028 log2 fold change | 0.242 | 0.023 log2 fold change | 0.200 | 0.107 log2 fold change | 0.927 | −0.039 log2 fold change | −0.343 |  |
| CCCSc1nc(N[C@@H]2C[C@H]2c2ccc(F)c(F)c2)c2nnn([C@@H]3C[C@H](OCCO)[C@@H](O)[C@H]3O)c2n1 [Ticagrelor] | 0.042 log2 fold change | 0.000 log2 fold change | 0.018 log2 fold change | 0.022 log2 fold change | −0.080 log2 fold change | −0.029 log2 fold change | −0.270 log2 fold change | −0.241 log2 fold change | 0.115 log2 fold change | 0.998 | −0.032 log2 fold change | −0.276 | 0.120 log2 fold change | 1.041 | 0.020 log2 fold change | 0.170 |  |
| Cc1ccc(S(=O)(=O)c2ccc([N+](=O)[O-])o2)cc1 [NSC697923] |  |  |  |  |  |  |  |  |  |  |  |  |  |  |  |  | Dose.FC.LYZ.S [1, 3]: 0.036 log2 fold change; Dose.FC.LYZ.S [1, 4]: 0.108 log2 fold change; Dose.FC.LYZ.S [1, 5]: −0.154 log2 fold change; Dose.FC.LYZ.S [1, 6]: −0.270 log2 fold change; Z.CTG (ENR+CD organoids; dose 0.08 uM): −0.123; Z.CTG (ENR+CD organoids; dose 0.40 uM): −0.033; Z.CTG (ENR+CD organoids; dose 2.00 uM): −0.241; Z.CTG (ENR+CD organoids; dose 10.00 uM): −1.867; Dose.FC.CTG (ENR+CD organoids; [3]): −0.052 log2 fold change; Dose.FC.CTG (ENR+CD organoids; [4]): −0.014 log2 fold change; Dose.FC.CTG (ENR+CD organoids; [5]): −0.101 log2 fold change; Dose.FC.CTG (ENR+CD organoids; [6]): −0.782 log2 fold change; Z.LYZ.NS [2, 7]: 0.789; Z.LYZ.NS [2, 8]: 0.441; Z.LYZ.NS [2, 9]: −0.906; Z.LYZ.NS [2, 10]: −1.338; Dose.FC.LYZ.NS ([2]; primary screen; dose 0.08 uM; FC vs plate median): 0.091 log2 fold change; Dose.FC.LYZ.NS ([2]; primary screen; dose 0.40 uM; FC vs plate median): 0.051 log2 fold change; Dose.FC.LYZ.NS ([2]; primary screen; dose 2.00 uM; FC vs plate median): −0.104 log2 fold change; Dose.FC.LYZ.NS ([2]; primary screen; dose 10.00 uM; FC vs plate median): −0.154 log2 fold change |
| O=C(NCc1cccc(O)c1)Nc1nc(-c2ccncc2)cs1 [RKI-1447] |  |  |  |  |  |  |  |  |  |  |  |  |  |  |  |  | Dose.FC.LYZ.S [1, 11]: −0.056 log2 fold change; Dose.FC.LYZ.S [1, 12]: −0.064 log2 fold change; Dose.FC.LYZ.S [1, 13]: −0.017 log2 fold change; Dose.FC.LYZ.S [1, 14]: −0.297 log2 fold change; Dose.FC.CTG (ENR+CD organoids; [11]): −0.397 log2 fold change; Z.CTG (ENR+CD organoids; dose 0.08 uM): −0.948; Dose.FC.CTG (ENR+CD organoids; [12]): −0.184 log2 fold change; Z.CTG (ENR+CD organoids; dose 0.40 uM): −0.441; Dose.FC.CTG (ENR+CD organoids; [13]): −0.226 log2 fold change; Z.CTG (ENR+CD organoids; dose 2.00 uM): −0.540; Dose.FC.CTG (ENR+CD organoids; [14]): −0.342 log2 fold change; Z.CTG (ENR+CD organoids; dose 10.00 uM): −0.816; Dose.FC.LYZ.NS ([2]; primary screen, dose 0.08 uM, FC relative to plate median): −0.006 log2 fold change; Z.LYZ.NS [2, 7]: −0.055; Dose.FC.LYZ.NS ([2]; primary screen, dose 0.40 uM, FC relative to plate median): −0.092 log2 fold change; Z.LYZ.NS [2, 8]: −0.803; Dose.FC.LYZ.NS ([2]; primary screen, dose 2.00 uM, FC relative to plate median): −0.009 log2 fold change; Z.LYZ.NS [2, 9]: −0.077; Dose.FC.LYZ.NS ([2]; primary screen, dose 10.00 uM, FC relative to plate median): −0.183 log2 fold change; Z.LYZ.NS [2, 10]: −1.594 |
